Here are results for 40 molecules from patent US20080090805A1, “CB-1 MODULATING COMPOUNDS AND THEIR USE” (ACADIA PHARMACEUTICALS INC., priority 2005, published 2008).

pKi: −log10 of the molar value. Read-outs that look alike come from different tables or passages of the source.

One data set concerns the target native CB1 receptors (Rattus norvegicus, UniProt P20272). The data set can be described thus: CB1 receptor rat binding assay ([3H]SR141716A, rat brain membranes). The settings on record: for Binding rat Inh % / Ki: rat brain membranes, [3H]SR141716A; for Ki: read-out: Binding rat pKi (converted).
The target in a further data set is human CB1 receptor (Homo sapiens, UniProt P21554). The data set can be described thus: CB1 receptor human binding assay ([3H]SR141716A, transfected HEK-293 T membranes). The settings on record: human CB1, HEK-293 T membranes; for Ki: read-out: Binding Human pKi (converted).
The target of a further data set is hERG (Homo sapiens, UniProt Q12809). Put plainly: HERG safety study (whole cell recordings, CHO cells). The conditions noted are these: CHO cells stably expressing hERG channels, pH 7.4.
Data set [1] is described as follows: Clearance study, liver microsomes (rats). The settings on record: rat, pH 7.4.
Data set [2] can be described thus: Clearance study, liver microsomes (human). The conditions noted are these: pH 7.4.
The nature of data set [3]: Clearance study, liver microsomes (mice). The settings on record: mouse, pH 7.4.

Chain of hERG (Q12809 whole entry): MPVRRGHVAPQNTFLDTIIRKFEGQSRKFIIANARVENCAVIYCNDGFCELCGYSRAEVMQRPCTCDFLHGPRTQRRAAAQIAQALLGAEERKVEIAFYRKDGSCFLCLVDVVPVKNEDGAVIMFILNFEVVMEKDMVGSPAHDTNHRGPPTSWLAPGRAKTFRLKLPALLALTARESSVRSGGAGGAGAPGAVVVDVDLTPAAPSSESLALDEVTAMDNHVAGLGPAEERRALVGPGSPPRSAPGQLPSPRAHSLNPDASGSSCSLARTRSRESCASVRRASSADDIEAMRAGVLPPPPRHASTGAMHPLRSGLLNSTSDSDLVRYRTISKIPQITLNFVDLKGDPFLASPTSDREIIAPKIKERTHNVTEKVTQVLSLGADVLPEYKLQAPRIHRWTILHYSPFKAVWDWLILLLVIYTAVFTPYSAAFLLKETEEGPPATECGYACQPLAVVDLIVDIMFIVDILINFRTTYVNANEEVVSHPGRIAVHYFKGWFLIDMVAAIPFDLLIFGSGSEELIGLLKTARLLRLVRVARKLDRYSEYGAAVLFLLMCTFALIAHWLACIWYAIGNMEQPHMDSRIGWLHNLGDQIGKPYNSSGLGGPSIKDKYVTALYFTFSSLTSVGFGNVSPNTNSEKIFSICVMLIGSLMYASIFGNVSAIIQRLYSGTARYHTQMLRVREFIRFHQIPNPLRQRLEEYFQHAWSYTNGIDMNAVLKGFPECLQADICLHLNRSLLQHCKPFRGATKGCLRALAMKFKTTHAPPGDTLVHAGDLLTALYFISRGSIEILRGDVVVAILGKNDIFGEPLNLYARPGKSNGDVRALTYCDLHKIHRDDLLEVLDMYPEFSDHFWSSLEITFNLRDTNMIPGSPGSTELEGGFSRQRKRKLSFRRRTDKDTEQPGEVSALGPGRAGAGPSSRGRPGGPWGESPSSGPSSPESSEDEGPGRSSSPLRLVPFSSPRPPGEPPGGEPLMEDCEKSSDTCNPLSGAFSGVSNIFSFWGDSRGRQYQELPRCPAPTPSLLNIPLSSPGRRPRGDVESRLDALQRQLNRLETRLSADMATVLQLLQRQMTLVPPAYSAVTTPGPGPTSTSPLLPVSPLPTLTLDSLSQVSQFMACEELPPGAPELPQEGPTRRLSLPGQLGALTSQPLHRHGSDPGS
Chain of native CB1 receptors (P20272 whole entry): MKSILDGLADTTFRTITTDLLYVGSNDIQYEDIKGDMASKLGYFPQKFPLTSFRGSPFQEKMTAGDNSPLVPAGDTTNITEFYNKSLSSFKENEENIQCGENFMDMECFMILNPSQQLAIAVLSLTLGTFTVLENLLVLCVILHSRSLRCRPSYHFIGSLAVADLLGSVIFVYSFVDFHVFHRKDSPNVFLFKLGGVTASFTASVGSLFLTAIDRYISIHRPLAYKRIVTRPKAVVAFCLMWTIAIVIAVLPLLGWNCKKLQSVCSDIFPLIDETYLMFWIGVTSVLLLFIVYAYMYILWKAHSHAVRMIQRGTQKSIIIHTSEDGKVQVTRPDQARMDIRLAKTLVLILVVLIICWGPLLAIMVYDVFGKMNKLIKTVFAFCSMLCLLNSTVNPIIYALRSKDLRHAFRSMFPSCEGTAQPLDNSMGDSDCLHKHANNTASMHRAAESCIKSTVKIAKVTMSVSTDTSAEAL
Chain of human CB1 receptor (P21554 whole entry): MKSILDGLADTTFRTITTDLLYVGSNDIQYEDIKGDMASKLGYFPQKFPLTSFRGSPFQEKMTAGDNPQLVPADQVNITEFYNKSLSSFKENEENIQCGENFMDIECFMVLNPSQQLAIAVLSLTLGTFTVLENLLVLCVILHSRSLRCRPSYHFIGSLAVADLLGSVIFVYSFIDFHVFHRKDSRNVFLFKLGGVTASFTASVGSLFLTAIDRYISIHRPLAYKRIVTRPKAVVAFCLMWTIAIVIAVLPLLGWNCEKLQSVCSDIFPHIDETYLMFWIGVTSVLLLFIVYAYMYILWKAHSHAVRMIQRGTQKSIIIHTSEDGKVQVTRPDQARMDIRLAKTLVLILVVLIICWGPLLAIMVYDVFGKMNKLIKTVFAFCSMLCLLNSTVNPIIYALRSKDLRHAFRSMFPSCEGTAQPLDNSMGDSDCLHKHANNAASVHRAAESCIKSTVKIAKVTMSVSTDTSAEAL

In the case of `O=C(NC1CCCCC1)c1ccc2c(c1)N=C(c1ccc(F)cc1)c1ccccc1S2` [drawing 1202], at native CB1 receptors, the “Binding rat Inh %” value worked out at 84% and the Ki was 3.16 nM. Besides, on human CB1 receptor, the “Binding Human Inh %” value amounted to 87% and the Ki is 1.26 nM.

For `COc1cccc(C2=Nc3cc(C(=O)NC4CCC(F)(F)CC4)ccc3Sc3ccccc32)n1` [drawing 1193], at native CB1 receptors, the “Binding rat Inh %” value amounted to 82% and the Ki is 0.794 nM. In addition, on human CB1 receptor, the “Binding Human Inh %” value came to 88% and the Ki is 0.501 nM.

For `O=C(NN1CCCCC1)c1ccc2c(c1)N=C(c1ccc(F)cc1)c1ccccc1S2` [drawing 1207], at native CB1 receptors, the “Binding rat Inh %” value was 103% and the Ki was 10 nM. Further, on human CB1 receptor, the “Binding Human Inh %” value stood at 87% and the Ki was 1.26 nM.

`CCCCNC(=O)c1ccc2c(c1)N=C(c1ccc(Br)cn1)c1ccccc1S2` [drawing 1820]: at 1 µM the inhibition on hERG was 78%.

Take `COc1cccc(C2=Nc3cc(C(=O)NCCCC(F)(F)F)ccc3Sc3ccccc32)n1` [drawing 1186]: at native CB1 receptors, the “Binding rat Inh %” value came out at 87% and the Ki is 10 nM. Besides, at human CB1 receptor, the “Binding Human Inh %” value came out at 84% and the Ki is 0.316 nM.

On to `O=C(NCCCC(F)(F)F)c1ccc2c(c1)N=C(c1ccsc1)c1ccccc1S2` [drawing 1837], for which the inhibition at 1 µM against hERG worked out at 28%.

In the case of `O=C(NN1CCCCC1)c1ccc2c(c1)N=C(C1CCCCC1)c1ccccc1S2` [drawing 1216], on native CB1 receptors, the pKi is 8.30 and the “Binding rat Inh %” value was determined as 94%. In addition, at human CB1 receptor, the “Binding Human Inh %” value turned out to be 65% and the Ki was 2 nM.

The molecule `O=C(NCCCC(F)(F)F)c1ccc2c(c1)N=C(c1ccc(Cl)cc1F)c1ccccc1S2` [drawing 1809] registered an inhibition at 1 µM at hERG of 24%.

Take `CC(C)CCNC(=O)c1ccc2c(c1)N=C(c1ccccn1)c1ccccc1S2` [drawing 1842]: 1 µM produced 39% inhibition against hERG.

Take `CC(C)CNC(=O)c1ccc2c(c1)N=C(c1ccc(Cl)cc1F)c1ccccc1S2` [drawing 1835]: the inhibition at 1 µM at hERG came to 41%.

For `CC(C)CNC(=O)c1ccc2c(c1)N=C(c1ccc(Cl)cc1)c1ccc(F)cc1S2` [drawing 1177], at native CB1 receptors, the “Binding rat Inh %” value was 89% and the Ki is 3.98 nM. Moreover, on human CB1 receptor, the “Binding Human Inh %” value is reported as 93% and the Ki was 0.158 nM.

In turn, `CC(C)CNC(=O)c1ccc2c(c1)N=C(c1ccc(Cl)c(Cl)c1)c1ccccc1S2` [drawing 1833] showed an inhibition at 1 µM at hERG of 16%.

Turning to `O=C(NCCCC(F)(F)F)c1ccc2c(c1)N=C(c1ccc(Cl)cc1F)c1ccccc1S2` [drawing 1175], at native CB1 receptors, the “Binding rat Inh %” value is 87% and the Ki was 0.501 nM. At human CB1 receptor, the “Binding Human Inh %” value came out at 92% and the Ki was 0.0794 nM.

As for `COCCNC(=O)c1ccc2c(c1)N=C(c1ccc(Cl)s1)c1ccccc1S2` [drawing 1218], on native CB1 receptors, the “Binding rat Inh %” value was determined as 80% and the Ki is 50.1 nM. At human CB1 receptor, the “Binding Human Inh %” value is listed as 94% and the Ki is 20 nM.

At hERG, `O=C(NCc1cccnc1)c1ccc2c(c1)N=C(c1ccc(Cl)c(Cl)c1)c1ccccc1S2` [drawing 1830] registered an inhibition at 1 µM of 40%.

On to `CC(C)CNC(=O)c1ccc2c(c1)N=C(c1ccc(Cl)c(Cl)c1)c1ccccc1S2` [drawing 1192], for which, on native CB1 receptors, the “Binding rat Inh %” value came to 96% and the Ki is 1.58 nM. Besides, on human CB1 receptor, the “Binding Human Inh %” value turned out to be 100% and the Ki is 0.398 nM.

`O=C(NN1CCCCCC1)c1ccc2c(c1)N=C(c1cccc(Cl)c1)c1ccccc1S2` [drawing 1209]: on native CB1 receptors, the “Binding rat Inh %” value was found to be 87% and the Ki was 2 nM. At human CB1 receptor, the “Binding Human Inh %” value was determined as 94% and the Ki is 1.58 nM.

On to `CC(C)CNC(=O)c1ccc2c(c1)N=C(c1ccc(Cl)s1)c1ccc(Cl)cc1S2` [drawing 1200], for which, on native CB1 receptors, the “Binding rat Inh %” value is on record as 100% and the Ki was 5.01 nM. At human CB1 receptor, the “Binding Human Inh %” value was found to be 92% and the Ki was 0.631 nM.

Consider `O=C(NN1CCCCCC1)c1ccc2c(c1)N=C(c1cccc(F)c1)c1ccccc1S2` [drawing 1215], for which, on native CB1 receptors, the “Binding rat Inh %” value worked out at 97% and the Ki was 6.31 nM. Also, on human CB1 receptor, the “Binding Human Inh %” value was 103% and the Ki was 2 nM.

As for `O=C(NCc1cccs1)c1ccc2c(c1)N=C(c1ccc(F)cc1)c1ccccc1S2` [drawing 1178], at native CB1 receptors, the “Binding rat Inh %” value stood at 97% and the Ki is 1.58 nM. Also, on human CB1 receptor, the “Binding Human Inh %” value was 76% and the Ki is 0.2 nM.

Take `CC(C)CNC(=O)c1ccc2c(c1)N=C(c1ccccn1)c1ccccc1S2` [drawing 1217]: on native CB1 receptors, the “Binding rat Inh %” value amounted to 79% and the Ki is 158 nM. Further, on human CB1 receptor, the “Binding Human Inh %” value was found to be 89% and the Ki is 6.31 nM.

As for `CC(C)CCNC(=O)c1ccc2c(c1)N=C(c1cccc(Cl)c1)c1ccccc1S2` [drawing 1185], at native CB1 receptors, the “Binding rat Inh %” value is recorded as 89% and the Ki was 1 nM. Moreover, on human CB1 receptor, the “Binding Human Inh %” value came out at 86% and the Ki is 0.251 nM.

For the molecule `CC(C)CNC(=O)c1ccc2c(c1)N=C(c1ccc(Cl)cc1F)c1ccccc1S2` [drawing 1199], on native CB1 receptors, the “Binding rat Inh %” value came to 94% and the Ki was 5.01 nM. At human CB1 receptor, the “Binding Human Inh %” value amounted to 77% and the Ki was 0.631 nM.

For the molecule `O=C(NN1CCCCCC1)c1ccc2c(c1)N=C(c1ccc(Cl)s1)c1ccccc1S2` [drawing 1208], on native CB1 receptors, the “Binding rat Inh %” value was determined as 93% and the Ki was 5.01 nM. Besides, at human CB1 receptor, the “Binding Human Inh %” value was found to be 96% and the Ki is 1.58 nM.

With `CCCNC(=O)c1ccc2c(c1)N=C(c1ccc(Cl)cc1)c1ccccc1S2` [drawing 1210], at native CB1 receptors, the “Binding rat Inh %” value came to 95% and the Ki is 6.31 nM. Further, on human CB1 receptor, the “Binding Human Inh %” value is 74% and the Ki is 2 nM.

Take `CCCCNC(=O)c1ccc2c(c1)N=C(c1ccc(Cl)s1)c1ccccc1S2` [drawing 1191]: on native CB1 receptors, the “Binding rat Inh %” value was found to be 101% and the Ki was 2.51 nM. Moreover, on human CB1 receptor, the “Binding Human Inh %” value was determined as 90% and the Ki was 0.316 nM.

For `CCCCNC(=O)c1ccc2c(c1)N=C(c1ccc(Cl)cc1)c1ccc(F)cc1S2` [drawing 1184], at native CB1 receptors, the “Binding rat Inh %” value came to 98% and the Ki was 2.51 nM. Also, at human CB1 receptor, the “Binding Human Inh %” value worked out at 94% and the Ki was 0.251 nM.

Turning to `O=C(NCc1ccco1)c1ccc2c(c1)N=C(c1ccc(Cl)c(Cl)c1)c1ccccc1S2` [drawing 1666], the intrinsic clearance (microsomal CLint) at 1 μM in data set [1] was found to be 25 µL/min/mg; in data set [2], 21 µL/min/mg; in data set [3], 27 µL/min/mg.

On to `O=C(NCc1cccnc1)c1ccc2c(c1)N=C(c1ccc(Cl)c(Cl)c1)c1ccccc1S2` [drawing 1664], for which the microsomal CLint at 1 μM in data set [1] was 33 µL/min/mg; in data set [2], 19 µL/min/mg; in data set [3] it was 38 µL/min/mg.

`CCCCNC(=O)c1ccc2c(c1)N=C(c1ccc(Br)cn1)c1ccccc1S2` [drawing 1654]: the microsomal CLint at 1 μM was found to be 299 µL/min/mg in data set [1], 63 µL/min/mg in data set [2] and 348 µL/min/mg in data set [3].

On to `Cc1ccsc1C1=Nc2cc(C(=O)NCc3cccs3)ccc2Sc2ccccc21` [drawing 1781], for which the results for the intrinsic metabolic clearance (microsomal CLint) at 1 μM in data set [1], in data set [2] and in data set [3] were 542 µL/min/mg, 227 µL/min/mg and 852 µL/min/mg, respectively.

As to `O=C(NCc1cccc(Cl)c1)c1ccc2c(c1)N=C(c1ccc(Cl)cc1)c1ccccc1S2` [drawing 1725], the microsomal CLint at 1 μM in data set [1] was found to be 58 µL/min/mg; in data set [2], 9 µL/min/mg; in data set [3], 238 µL/min/mg.

For the molecule `O=C(NCc1cccnc1)c1ccc2c(c1)N=C(c1ccc(Br)cc1)c1ccccc1S2` [drawing 1728], the microsomal CLint at 1 μM in data set [1] was determined as 70 µL/min/mg; in data set [2], 39 µL/min/mg; in data set [3], 83 µL/min/mg.

Turning to `O=C(NCCCC(F)(F)F)c1ccc2c(c1)N=C(c1ccc(Cl)s1)c1ccccc1S2` [drawing 1176], on native CB1 receptors, the “Binding rat Inh %” value turned out to be 91% and the Ki was 0.501 nM. Besides, on human CB1 receptor, the “Binding Human Inh %” value is 87% and the Ki is 0.158 nM.

Regarding `O=C(NCc1cccnc1)c1ccc2c(c1)N=C(c1ccc(Cl)cc1)c1ccccc1S2` [drawing 1756], the intrinsic metabolic clearance (microsomal CLint) at 1 μM in data set [1] was determined as 80 µL/min/mg; in data set [2], 41 µL/min/mg; in data set [3] it was 92 µL/min/mg.

Consider `O=C(NC1CCCCC1)c1ccc2c(c1)N=C(c1cccc(Cl)c1)c1ccccc1S2` [drawing 1675], for which the figures for the microsomal CLint at 1 μM in data set [1], in data set [2] and in data set [3] were 48 µL/min/mg, 12 µL/min/mg and 58 µL/min/mg, respectively.

Regarding `CCCCNC(=O)c1ccc2c(c1)N=C(c1ccc(Cl)s1)c1ccccc1S2` [drawing 1669], the microsomal CLint at 1 μM in data set [1] stood at 80 µL/min/mg; in data set [2] it was 32 µL/min/mg; in data set [3], 266 µL/min/mg.

Turning to `Cc1ccsc1C1=Nc2cc(C(=O)NN3CCCCC3)ccc2Sc2ccccc21` [drawing 1730], the microsomal CLint at 1 μM is 304 µL/min/mg in data set [1], 50 µL/min/mg in data set [2] and 385 µL/min/mg in data set [3].

Regarding `O=C(NCc1cccc(Cl)c1)c1ccc2c(c1)N=C(c1ccc(Cl)cc1)c1cc(F)ccc1S2` [drawing 1686], the microsomal CLint at 1 μM turned out to be 48 µL/min/mg in data set [1], 3 µL/min/mg in data set [2] and 96 µL/min/mg in data set [3].

For `O=C(NC1CCCCC1)c1ccc2c(c1)N=C(c1cccc(Cl)c1)c1ccccc1S2` [drawing 1194], at native CB1 receptors, the “Binding rat Inh %” value is reported as 80% and the Ki is 1.26 nM. Also, on human CB1 receptor, the “Binding Human Inh %” value is reported as 107% and the Ki was 0.631 nM.
